Drawing on ChEMBL document CHEMBL4507263, “Data for DCP probe BAY-474” (2021), this text covers residual activity and inhibition for two molecules.

The inhibition is the drop in the measured response relative to a control, in per cent.

Assay [1] concerns the target Bone morphogenetic protein receptor type-1B (Homo sapiens) (UniProt O00238). The following applies: Compound concentration 1000.0 nM.
Assay [2] deals with Serine/threonine-protein kinase PAK 4 (Homo sapiens) (UniProt O96013). The settings on record: Compound concentration 1000.0 nM.
The target of assay [3] is Calcium/calmodulin-dependent protein kinase type II subunit delta (Homo sapiens) (UniProt Q13557). The following applies: Compound concentration 1000.0 nM.
In assay [4] the target is Tyrosine-protein kinase ITK/TSK (Homo sapiens) (UniProt Q08881). The following applies: Compound concentration 1000.0 nM.
The target of assay [5] is Phosphatidylinositol 4-kinase beta (Homo sapiens) (UniProt Q9UBF8). The settings on record: Compound concentration 1000.0 nM.
The target in assay [6] is Cyclin-dependent kinase 14 (Homo sapiens) (UniProt O94921). The following applies: Compound concentration 1000.0 nM.
For assay [7], the target named is Death-associated protein kinase 3 (Homo sapiens) (UniProt O43293). The settings on record: Compound concentration 1000.0 nM.
The target in assay [8] is Casein kinase I isoform alpha (Homo sapiens) (UniProt P48729). The following applies: Compound concentration 1000.0 nM.
For assay [9], the target named is Serine/threonine-protein kinase Chk2 (Homo sapiens) (UniProt O96017). The settings on record: Compound concentration 1000.0 nM.
In assay [10] the target is 5-hydroxytryptamine receptor 1D (Homo sapiens) (UniProt P28221). The following applies: Compound concentration 10.0 uM.
Assay [11] has as its target 5'-AMP-activated protein kinase catalytic subunit alpha-1 (Homo sapiens) (UniProt Q13131). The settings on record: Compound concentration 1000.0 nM.
Assay [12] has as its system Epidermal growth factor receptor (Homo sapiens), P00533 [UNDEFINED MUTATION]. The settings on record: Compound concentration 1000.0 nM.
Assay [13] deals with Citron Rho-interacting kinase (Homo sapiens) (UniProt O14578). The settings on record: Compound concentration 1000.0 nM.
Assay [14] addresses Mitogen-activated protein kinase kinase kinase kinase 4 (Homo sapiens) (UniProt O95819). The following applies: Compound concentration 1000.0 nM.
For assay [15], the target named is Fibroblast growth factor receptor 3 (Homo sapiens) (UniProt P22607). The following applies: Compound concentration 1000.0 nM.
Assay [16] deals with Serine/threonine-protein kinase Nek3 (Homo sapiens) (UniProt P51956). The settings on record: Compound concentration 1000.0 nM.
Assay [17] deals with Hepatocyte growth factor receptor (Homo sapiens), P08581 [M1250T]. The following applies: Compound concentration 1000.0 nM.
For assay [18], the target named is Mitogen-activated protein kinase kinase kinase 2 (Homo sapiens) (UniProt Q9Y2U5). The following applies: Compound concentration 1000.0 nM.
The target of assay [19] is Receptor-interacting serine/threonine-protein kinase 1 (Homo sapiens) (UniProt Q13546). The following applies: Compound concentration 1000.0 nM.
The target in assay [20] is Ephrin type-B receptor 3 (Homo sapiens) (UniProt P54753). The settings on record: Compound concentration 1000.0 nM.
In assay [21] the target is Non-receptor tyrosine-protein kinase TNK1 (Homo sapiens) (UniProt Q13470). The settings on record: Compound concentration 1000.0 nM.
Assay [22] deals with Glycogen synthase kinase-3 alpha (Homo sapiens) (UniProt P49840). The following applies: Compound concentration 1000.0 nM.
Assay [23] addresses Mitogen-activated protein kinase kinase kinase 15 (Homo sapiens) (UniProt Q6ZN16). The following applies: Compound concentration 1000.0 nM.
Assay [24] has as its target Serine/threonine-protein kinase PAK 6 (Homo sapiens) (UniProt Q9NQU5). The settings on record: Compound concentration 1000.0 nM.
Assay [25] addresses Serine/threonine-protein kinase TAO1 (Homo sapiens) (UniProt Q7L7X3). The settings on record: Compound concentration 1000.0 nM.
For assay [26], the target named is Phosphatidylinositol 3-kinase C2 domain-containing subunit gamma (Homo sapiens) (UniProt O75747). The settings on record: Compound concentration 1000.0 nM.
Assay [27] deals with Serine/threonine-protein kinase Chk1 (Homo sapiens) (UniProt O14757). The settings on record: Compound concentration 1000.0 nM.
Assay [28] has as its target Serine/threonine-protein kinase SIK3 (Homo sapiens) (UniProt Q9Y2K2). The settings on record: Compound concentration 1000.0 nM.
Assay [29] concerns Receptor-type tyrosine-protein kinase FLT3 (Homo sapiens), P36888 [UNDEFINED MUTATION]. The settings on record: Compound concentration 1000.0 nM.
Assay [30] has as its target Leucine-rich repeat serine/threonine-protein kinase 2 (Homo sapiens) (UniProt Q5S007). The following applies: Compound concentration 1000.0 nM.
Assay [31] has as its target Ephrin type-A receptor 2 (Homo sapiens) (UniProt P29317). The following applies: Compound concentration 1000.0 nM.
In assay [32] the target is Tyrosine-protein kinase TXK (Homo sapiens) (UniProt P42681). The following applies: Compound concentration 1000.0 nM.
Assay [33] concerns the target 5-hydroxytryptamine receptor 5A (Homo sapiens) (UniProt P47898). The settings on record: Compound concentration 10.0 uM.
The target of assay [34] is Delta-type opioid receptor (Homo sapiens) (UniProt P41143). The settings on record: Compound concentration 10.0 uM.
Assay [35] has as its target Mitogen-activated protein kinase 8 (Homo sapiens) (UniProt P45983). Briefly: JNK1alpha1 (h) Millipore kinase activity assay. The following applies: Compound concentration 1.0 uM.
In assay [36] the target is Ephrin type-B receptor 4 (Homo sapiens) (UniProt P54760). The assay is described as follows: EphB4 (h) Millipore kinase activity assay. The following applies: Compound concentration 1.0 uM.
Assay [37] addresses Ephrin type-A receptor 5 (Homo sapiens) (UniProt P54756). The assay is described as follows: EphA5 (h) Millipore kinase activity assay. The following applies: Compound concentration 1.0 uM.
Assay [38] concerns the target Fibroblast growth factor receptor 3 (Homo sapiens) (UniProt P22607). The assay is described as follows: FGFR3 (h) Millipore kinase activity assay. The following applies: Compound concentration 1.0 uM.
The target in assay [39] is Casein kinase II subunit alpha (Homo sapiens) (UniProt P68400). The assay is described as follows: CK2 (h) Millipore kinase activity assay. The following applies: Compound concentration 1.0 uM.
The target of assay [40] is Alpha-1A adrenergic receptor (Homo sapiens) (UniProt P35348). The settings on record: Compound concentration 10.0 uM.
Assay [41] addresses Maternal embryonic leucine zipper kinase (Homo sapiens) (UniProt Q14680). Briefly: MELK (h) Millipore kinase activity assay. The following applies: Compound concentration 1.0 uM.
Assay [42] addresses Serine/threonine-protein kinase TAO1 (Homo sapiens) (UniProt Q7L7X3). Briefly: TAO1 (h) Millipore kinase activity assay. The settings on record: Compound concentration 1.0 uM.
In assay [43] the target is Serine/threonine-protein kinase PLK2 (Homo sapiens) (UniProt Q9NYY3). Briefly: Snk (h) Millipore kinase activity assay. The settings on record: Compound concentration 1.0 uM.
The next assay is filed under the species Oryctolagus cuniculus. The assay is described as follows: Inhibition of Purinergic P2X at 10 µM in the Eurofins-Panlabs radioligand binding assay (Eurofins_assay_268700). It is filed as protein assay. The settings on record: Compound concentration 10.0 uM.
In assay [44] the target is BDNF/NT-3 growth factors receptor (Homo sapiens) (UniProt Q16620). Briefly: TrkB (h) Millipore kinase activity assay. The following applies: Compound concentration 1.0 uM.
Assay [45] addresses Mitogen-activated protein kinase 11 (Homo sapiens) (UniProt Q15759). Briefly: SAPK2b (h) Millipore kinase activity assay. The following applies: Compound concentration 1.0 uM.

Serine/threonine-protein kinase TAO1 (Homo sapiens), sequence (Q7L7X3 whole entry, the tested form may be a part): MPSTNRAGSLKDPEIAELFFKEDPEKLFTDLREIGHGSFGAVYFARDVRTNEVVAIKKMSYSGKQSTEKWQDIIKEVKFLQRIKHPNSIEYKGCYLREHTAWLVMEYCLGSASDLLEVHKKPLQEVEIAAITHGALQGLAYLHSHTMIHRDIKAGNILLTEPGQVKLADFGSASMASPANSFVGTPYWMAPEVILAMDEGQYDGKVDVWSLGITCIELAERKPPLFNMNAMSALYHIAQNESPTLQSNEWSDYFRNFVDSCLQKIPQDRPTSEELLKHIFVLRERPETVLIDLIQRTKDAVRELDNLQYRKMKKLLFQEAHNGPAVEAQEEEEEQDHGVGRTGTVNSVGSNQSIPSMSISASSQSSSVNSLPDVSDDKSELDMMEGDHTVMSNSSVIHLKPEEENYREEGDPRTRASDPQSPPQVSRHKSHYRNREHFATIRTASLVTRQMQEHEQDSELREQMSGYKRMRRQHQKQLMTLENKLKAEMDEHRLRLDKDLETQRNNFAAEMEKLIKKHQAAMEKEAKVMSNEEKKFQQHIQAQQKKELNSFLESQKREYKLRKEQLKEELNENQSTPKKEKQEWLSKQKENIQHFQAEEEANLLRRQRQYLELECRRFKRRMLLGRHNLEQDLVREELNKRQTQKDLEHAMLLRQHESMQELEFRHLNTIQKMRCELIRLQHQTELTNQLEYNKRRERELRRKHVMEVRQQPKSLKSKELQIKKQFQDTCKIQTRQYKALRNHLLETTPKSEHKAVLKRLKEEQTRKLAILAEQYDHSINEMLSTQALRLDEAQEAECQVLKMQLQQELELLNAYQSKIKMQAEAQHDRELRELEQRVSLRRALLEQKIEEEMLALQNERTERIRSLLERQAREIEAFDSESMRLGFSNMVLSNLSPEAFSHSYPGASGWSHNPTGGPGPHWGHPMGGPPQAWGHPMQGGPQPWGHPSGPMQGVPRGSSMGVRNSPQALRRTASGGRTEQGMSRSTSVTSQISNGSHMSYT
Fibroblast growth factor receptor 3 (Homo sapiens), sequence (P22607 23-806 limits assumed): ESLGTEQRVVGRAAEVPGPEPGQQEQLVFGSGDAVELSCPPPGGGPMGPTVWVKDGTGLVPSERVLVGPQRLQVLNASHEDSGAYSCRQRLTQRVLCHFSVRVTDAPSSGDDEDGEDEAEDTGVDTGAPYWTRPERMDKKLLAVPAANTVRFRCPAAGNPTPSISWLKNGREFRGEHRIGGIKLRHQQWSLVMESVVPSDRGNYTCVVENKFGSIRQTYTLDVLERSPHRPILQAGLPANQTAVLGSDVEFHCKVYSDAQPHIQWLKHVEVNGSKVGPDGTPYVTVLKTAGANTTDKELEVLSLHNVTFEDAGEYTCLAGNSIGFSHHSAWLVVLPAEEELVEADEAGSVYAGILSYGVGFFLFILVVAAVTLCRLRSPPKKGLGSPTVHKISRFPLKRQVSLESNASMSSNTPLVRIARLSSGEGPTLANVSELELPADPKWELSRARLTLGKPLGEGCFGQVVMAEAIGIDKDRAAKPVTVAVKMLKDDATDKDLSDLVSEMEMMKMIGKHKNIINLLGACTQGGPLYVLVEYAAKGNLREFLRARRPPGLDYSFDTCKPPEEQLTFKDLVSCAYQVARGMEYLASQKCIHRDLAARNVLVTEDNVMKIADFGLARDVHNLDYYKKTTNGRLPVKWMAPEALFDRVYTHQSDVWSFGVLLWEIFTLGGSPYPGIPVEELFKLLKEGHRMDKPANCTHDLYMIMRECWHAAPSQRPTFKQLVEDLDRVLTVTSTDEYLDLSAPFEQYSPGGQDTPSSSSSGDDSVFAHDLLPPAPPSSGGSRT
Receptor-interacting serine/threonine-protein kinase 1 (Homo sapiens), sequence (Q13546 whole entry): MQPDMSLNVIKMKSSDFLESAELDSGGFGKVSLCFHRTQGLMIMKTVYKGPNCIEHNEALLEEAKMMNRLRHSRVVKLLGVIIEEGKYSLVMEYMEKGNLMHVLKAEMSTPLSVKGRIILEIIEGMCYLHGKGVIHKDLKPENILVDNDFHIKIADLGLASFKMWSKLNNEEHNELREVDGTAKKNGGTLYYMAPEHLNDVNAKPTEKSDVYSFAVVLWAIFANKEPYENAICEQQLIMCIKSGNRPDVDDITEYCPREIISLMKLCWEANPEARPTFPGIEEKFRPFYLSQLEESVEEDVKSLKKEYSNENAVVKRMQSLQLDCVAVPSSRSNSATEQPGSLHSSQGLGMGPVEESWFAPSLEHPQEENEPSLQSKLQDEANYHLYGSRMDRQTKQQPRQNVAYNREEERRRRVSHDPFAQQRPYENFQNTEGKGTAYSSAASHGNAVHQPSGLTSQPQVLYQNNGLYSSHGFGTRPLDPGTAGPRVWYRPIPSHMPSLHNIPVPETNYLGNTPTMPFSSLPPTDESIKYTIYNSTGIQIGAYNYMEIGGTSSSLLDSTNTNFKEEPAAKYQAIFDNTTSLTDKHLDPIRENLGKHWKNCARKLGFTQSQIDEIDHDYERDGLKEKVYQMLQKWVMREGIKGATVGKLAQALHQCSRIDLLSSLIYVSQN
Serine/threonine-protein kinase Chk1 (Homo sapiens), sequence (O14757 whole entry): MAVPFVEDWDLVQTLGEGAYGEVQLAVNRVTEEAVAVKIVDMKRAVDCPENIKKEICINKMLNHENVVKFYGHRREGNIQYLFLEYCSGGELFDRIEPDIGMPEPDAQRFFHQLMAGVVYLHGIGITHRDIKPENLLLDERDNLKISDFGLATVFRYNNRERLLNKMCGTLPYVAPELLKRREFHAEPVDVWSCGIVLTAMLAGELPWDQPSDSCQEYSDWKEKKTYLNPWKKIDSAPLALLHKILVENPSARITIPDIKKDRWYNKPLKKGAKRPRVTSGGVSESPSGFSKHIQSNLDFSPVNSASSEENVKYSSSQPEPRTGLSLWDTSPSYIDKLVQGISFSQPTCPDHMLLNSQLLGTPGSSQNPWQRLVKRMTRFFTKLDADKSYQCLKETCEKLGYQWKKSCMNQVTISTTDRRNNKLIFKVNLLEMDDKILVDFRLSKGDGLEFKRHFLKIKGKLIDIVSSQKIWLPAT
Serine/threonine-protein kinase Nek3 (Homo sapiens), sequence (P51956 whole entry): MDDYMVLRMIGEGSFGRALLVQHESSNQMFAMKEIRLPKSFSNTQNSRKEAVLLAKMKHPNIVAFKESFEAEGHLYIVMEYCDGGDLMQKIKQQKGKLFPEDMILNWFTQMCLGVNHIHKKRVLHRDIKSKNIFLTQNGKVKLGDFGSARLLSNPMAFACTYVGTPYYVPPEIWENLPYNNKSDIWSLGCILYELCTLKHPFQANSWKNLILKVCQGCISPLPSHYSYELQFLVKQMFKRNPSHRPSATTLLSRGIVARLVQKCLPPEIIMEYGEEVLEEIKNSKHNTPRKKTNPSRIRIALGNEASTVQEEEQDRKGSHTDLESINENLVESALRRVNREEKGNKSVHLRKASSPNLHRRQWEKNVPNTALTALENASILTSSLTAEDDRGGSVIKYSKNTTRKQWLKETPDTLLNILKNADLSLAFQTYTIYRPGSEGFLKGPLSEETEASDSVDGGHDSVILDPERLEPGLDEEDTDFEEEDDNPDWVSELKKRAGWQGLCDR
Mitogen-activated protein kinase kinase kinase kinase 4 (Homo sapiens), sequence (O95819 2-1239 limits assumed): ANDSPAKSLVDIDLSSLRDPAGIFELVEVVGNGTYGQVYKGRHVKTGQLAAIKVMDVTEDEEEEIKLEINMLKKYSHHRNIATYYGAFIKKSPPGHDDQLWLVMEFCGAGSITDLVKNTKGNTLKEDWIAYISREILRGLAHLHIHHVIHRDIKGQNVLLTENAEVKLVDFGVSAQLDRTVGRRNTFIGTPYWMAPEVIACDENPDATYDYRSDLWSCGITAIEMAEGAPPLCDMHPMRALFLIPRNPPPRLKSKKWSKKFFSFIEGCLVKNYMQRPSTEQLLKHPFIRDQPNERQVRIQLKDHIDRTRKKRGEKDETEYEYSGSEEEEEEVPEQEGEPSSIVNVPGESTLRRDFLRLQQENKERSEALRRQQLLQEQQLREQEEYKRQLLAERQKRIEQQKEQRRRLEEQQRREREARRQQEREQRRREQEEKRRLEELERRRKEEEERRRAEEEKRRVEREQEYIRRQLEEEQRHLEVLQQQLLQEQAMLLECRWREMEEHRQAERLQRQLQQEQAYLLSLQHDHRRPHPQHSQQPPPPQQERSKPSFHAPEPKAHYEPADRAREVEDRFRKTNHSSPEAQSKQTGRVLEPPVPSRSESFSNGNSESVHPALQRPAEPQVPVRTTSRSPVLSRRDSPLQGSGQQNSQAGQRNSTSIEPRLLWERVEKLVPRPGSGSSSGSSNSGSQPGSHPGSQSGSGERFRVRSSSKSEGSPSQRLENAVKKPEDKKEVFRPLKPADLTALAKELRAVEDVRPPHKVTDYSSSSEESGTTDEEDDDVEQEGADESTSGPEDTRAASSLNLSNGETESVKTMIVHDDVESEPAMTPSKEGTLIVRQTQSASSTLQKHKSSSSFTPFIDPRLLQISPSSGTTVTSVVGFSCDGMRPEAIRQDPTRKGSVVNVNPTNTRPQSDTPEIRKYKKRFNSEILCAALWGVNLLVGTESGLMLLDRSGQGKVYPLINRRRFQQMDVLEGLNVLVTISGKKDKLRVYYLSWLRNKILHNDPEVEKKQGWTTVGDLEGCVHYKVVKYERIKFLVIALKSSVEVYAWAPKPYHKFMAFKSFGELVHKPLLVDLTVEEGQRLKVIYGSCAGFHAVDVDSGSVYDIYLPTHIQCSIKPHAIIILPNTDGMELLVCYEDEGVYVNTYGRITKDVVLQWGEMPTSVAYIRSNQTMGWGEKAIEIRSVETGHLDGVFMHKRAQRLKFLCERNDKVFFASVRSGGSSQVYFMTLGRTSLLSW
5-hydroxytryptamine receptor 5A (Homo sapiens), sequence (P47898 whole entry): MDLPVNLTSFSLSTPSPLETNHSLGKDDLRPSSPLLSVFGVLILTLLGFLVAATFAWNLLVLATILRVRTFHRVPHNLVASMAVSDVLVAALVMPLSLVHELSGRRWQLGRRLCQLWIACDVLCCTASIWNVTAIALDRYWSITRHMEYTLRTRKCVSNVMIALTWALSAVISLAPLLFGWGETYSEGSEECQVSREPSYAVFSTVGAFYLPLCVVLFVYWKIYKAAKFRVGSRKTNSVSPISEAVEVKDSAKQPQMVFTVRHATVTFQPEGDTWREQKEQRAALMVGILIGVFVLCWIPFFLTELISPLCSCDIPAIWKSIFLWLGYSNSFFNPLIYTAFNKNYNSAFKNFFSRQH

`CC1=C(C#N)[C@@H](c2ccc3[nH]nc(C)c3c2)C(C#N)=C(c2ccc(Cl)cc2)N1` [BAY-827]: the residual activity in assay [1] was 100%; in assay [2], 100%; in [3], 82.1%; in [4] it was 97.2%; in assay [5] it was 95.1%; in assay [6], 94.4%. For the same molecule, the residual activity in assay [7] is 100%; in assay [8], 64.7%; in [9], 100%; in [11], 100%; in assay [12], 79.5%; in assay [13], 100%. Further, the residual activity in assay [14] was 100%; in [15], 91.2%; in [16] it was 100%; in [17], 25.1%; in assay [18], 72.2%; in assay [19], 94.6%. In addition, the residual activity is 100% in assay [20]; 65% in assay [21]; 100% in assay [22]; 100% in [23]; 100% in assay [24]; 100% in assay [25]. The residual activity was 93.9% in assay [26]; 100% in [27]; 100% in [28]; 100% in assay [29]; 91.7% in [30]; 100% in [31]. The residual activity in assay [32] is 88.1%. For the same molecule, the inhibition is 4.2% in assay [10] and 4.53% in assay [33].

Take `CC1=C(C#N)C(c2ccc3[nH]nc(C)c3c2)C(C#N)=C(C)N1` [BAY-474]: the inhibition in assay [34] is 9%; in [35] it was -8%; in assay [36] it was -4%; in assay [37] it was -1%; in [38] it was 10%; in assay [39], -8%. The inhibition in assay [40] is 15.6%; in assay [41] it was 26%; in assay [42], -6%; in assay [43] it was 3%; in the assay filed under Oryctolagus cuniculus, -1%; in [44], -2%. For the same molecule, the inhibition in assay [45] is -10%.
